Experimental data reported in article PMC6978363, “Chaperone mediated detection of small molecule target binding in cells” (Nature Communications, 2020).

Columns and labels:
Experiment in all cases: biochemical
AKT2 = AKT2 (Homo sapiens, UniProt P31751); settings: read-out: % Inhibition (at 10mM)
Axl = Axl (Homo sapiens, UniProt P30530); settings: read-out: % Inhibition (at 10mM)
Bmx = Bmx (Homo sapiens, UniProt P51813); settings: read-out: % Inhibition (at 10mM)
Brk = molecular target: T1, Brk (Homo sapiens, UniProt Q13882); settings: read-out: % Inhibition (at 10mM)
T1 construct: gene PTK6

CDK5/p35 = molecular target: T2, CDK5/p35 (Homo sapiens, UniProt Q00535); settings: read-out: % Inhibition (at 10mM)
T2 construct: p35

CK1_gamma1 = molecular target: T3, CK1_gamma1 (Homo sapiens, UniProt Q9HCP0); settings: read-out: % Inhibition (at 10mM)
T3 construct: gene CSNK1G1

CSK = CSK (Homo sapiens, UniProt P41240); settings: read-out: % Inhibition (at 10mM)
CSK, sequence (P41240 whole entry): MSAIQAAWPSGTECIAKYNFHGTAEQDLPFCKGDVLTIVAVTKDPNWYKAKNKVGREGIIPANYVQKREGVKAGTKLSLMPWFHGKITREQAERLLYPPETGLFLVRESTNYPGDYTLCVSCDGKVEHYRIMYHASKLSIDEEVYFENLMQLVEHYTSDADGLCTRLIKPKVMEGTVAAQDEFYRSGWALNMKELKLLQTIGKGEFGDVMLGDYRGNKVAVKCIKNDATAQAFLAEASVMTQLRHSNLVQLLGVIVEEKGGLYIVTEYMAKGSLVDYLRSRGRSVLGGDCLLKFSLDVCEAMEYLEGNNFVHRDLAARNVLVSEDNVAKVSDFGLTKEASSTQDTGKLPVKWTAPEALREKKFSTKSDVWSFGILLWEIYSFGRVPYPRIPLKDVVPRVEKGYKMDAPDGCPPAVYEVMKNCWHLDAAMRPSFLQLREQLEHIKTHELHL

CaMKII_beta = molecular target: T4, CaMKII_beta (Homo sapiens, UniProt Q13554); settings: read-out: % Inhibition (at 10mM)
T4 construct: gene CAMK2B
T4 sequence (Q13554 whole entry): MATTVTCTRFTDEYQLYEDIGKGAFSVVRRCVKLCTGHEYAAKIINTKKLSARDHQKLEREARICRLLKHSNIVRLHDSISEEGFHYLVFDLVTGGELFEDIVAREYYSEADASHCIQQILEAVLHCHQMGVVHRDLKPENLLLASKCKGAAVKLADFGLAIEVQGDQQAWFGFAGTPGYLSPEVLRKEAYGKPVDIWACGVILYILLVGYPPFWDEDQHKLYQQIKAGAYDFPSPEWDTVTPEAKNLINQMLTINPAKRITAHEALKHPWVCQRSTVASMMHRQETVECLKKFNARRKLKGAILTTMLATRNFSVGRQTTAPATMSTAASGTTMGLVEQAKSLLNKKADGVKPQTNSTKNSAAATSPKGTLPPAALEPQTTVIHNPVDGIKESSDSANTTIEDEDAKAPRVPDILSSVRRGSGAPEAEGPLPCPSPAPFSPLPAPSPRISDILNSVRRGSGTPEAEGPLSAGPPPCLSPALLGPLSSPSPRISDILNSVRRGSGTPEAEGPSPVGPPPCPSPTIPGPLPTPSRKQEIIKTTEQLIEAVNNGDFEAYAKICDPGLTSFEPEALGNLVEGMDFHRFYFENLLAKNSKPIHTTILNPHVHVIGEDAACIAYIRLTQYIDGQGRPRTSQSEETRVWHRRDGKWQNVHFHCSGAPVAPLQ

CamK1_gamma = molecular target: T5, CamK1_gamma (Homo sapiens, UniProt Q96NX5); settings: read-out: % Inhibition (at 10mM)
T5 construct: gene CAMK1G
T5 sequence (Q96NX5 whole entry): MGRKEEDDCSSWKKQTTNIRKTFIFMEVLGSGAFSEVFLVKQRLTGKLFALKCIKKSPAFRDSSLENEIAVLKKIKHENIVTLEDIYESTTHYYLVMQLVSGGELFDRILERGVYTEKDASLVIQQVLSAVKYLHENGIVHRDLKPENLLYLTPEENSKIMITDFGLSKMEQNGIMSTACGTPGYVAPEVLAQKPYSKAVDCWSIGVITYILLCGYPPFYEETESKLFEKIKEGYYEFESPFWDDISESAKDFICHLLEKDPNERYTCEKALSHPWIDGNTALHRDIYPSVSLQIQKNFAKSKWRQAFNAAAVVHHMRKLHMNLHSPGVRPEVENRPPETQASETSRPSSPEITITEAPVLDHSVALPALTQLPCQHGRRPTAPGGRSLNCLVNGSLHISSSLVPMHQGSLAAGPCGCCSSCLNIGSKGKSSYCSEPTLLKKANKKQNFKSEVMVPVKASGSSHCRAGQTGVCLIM

DCAMKL1 = molecular target: T6, DCAMKL1 (Homo sapiens, UniProt O15075); settings: read-out: % Inhibition (at 10mM)
T6 construct: gene DCLK1

DNA-PK = molecular target: T7, DNA-PK (Homo sapiens, UniProt P78527); settings: read-out: % Inhibition (at 10mM)
T7 construct: gene PRKDC

FGFR2 = FGFR2 (Homo sapiens, UniProt P21802); settings: read-out: % Inhibition (at 10mM)
FGFR4 = FGFR4 (Homo sapiens, UniProt P22455); settings: read-out: % Inhibition (at 10mM)
FGFR4, sequence (P22455 whole entry): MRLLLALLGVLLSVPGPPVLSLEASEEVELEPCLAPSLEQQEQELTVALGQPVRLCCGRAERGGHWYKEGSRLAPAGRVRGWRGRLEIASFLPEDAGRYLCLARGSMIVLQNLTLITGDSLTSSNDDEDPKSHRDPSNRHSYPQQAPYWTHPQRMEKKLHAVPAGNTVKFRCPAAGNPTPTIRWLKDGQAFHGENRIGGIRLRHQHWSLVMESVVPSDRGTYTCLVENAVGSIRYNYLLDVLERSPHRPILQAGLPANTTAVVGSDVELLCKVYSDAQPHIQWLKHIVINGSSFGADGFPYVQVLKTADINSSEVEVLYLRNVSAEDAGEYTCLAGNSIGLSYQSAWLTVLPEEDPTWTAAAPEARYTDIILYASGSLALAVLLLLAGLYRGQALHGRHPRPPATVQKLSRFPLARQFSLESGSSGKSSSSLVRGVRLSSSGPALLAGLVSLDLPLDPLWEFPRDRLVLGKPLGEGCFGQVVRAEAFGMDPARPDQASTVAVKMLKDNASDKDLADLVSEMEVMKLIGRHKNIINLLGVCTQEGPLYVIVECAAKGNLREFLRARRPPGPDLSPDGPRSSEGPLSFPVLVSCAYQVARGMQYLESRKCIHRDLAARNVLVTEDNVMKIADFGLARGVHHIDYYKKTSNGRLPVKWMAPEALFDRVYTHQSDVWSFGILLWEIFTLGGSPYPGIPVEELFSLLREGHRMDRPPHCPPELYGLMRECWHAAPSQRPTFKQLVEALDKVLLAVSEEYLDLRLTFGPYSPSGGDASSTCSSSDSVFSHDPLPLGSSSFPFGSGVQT

Frk = Frk (Homo sapiens, UniProt P42685); settings: read-out: % Inhibition (at 10mM)
Frk, sequence (P42685 whole entry): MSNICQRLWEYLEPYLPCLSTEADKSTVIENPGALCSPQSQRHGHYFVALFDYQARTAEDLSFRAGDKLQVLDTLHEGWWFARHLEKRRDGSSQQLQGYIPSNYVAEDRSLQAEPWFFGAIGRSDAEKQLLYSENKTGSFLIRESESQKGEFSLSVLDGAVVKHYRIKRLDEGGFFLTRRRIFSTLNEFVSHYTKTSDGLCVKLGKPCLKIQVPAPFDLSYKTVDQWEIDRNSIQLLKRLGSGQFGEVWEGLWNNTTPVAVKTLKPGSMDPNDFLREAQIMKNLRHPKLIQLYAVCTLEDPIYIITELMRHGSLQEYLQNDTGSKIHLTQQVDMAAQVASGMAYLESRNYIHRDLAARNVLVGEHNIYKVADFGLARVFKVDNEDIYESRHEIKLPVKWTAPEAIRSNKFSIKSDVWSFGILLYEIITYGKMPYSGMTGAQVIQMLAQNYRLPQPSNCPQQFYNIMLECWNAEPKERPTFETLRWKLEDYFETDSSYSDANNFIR

GRK5 = GRK5 (Homo sapiens, UniProt P34947); settings: read-out: % Inhibition (at 10mM)
GRK6 = GRK6 (Homo sapiens, UniProt P43250); settings: read-out: % Inhibition (at 10mM)
HIPK3 = HIPK3 (Homo sapiens, UniProt Q9H422); settings: read-out: % Inhibition (at 10mM)
ITK = ITK (Homo sapiens, UniProt Q08881); settings: read-out: % Inhibition (at 10mM)
KHS1 = molecular target: T8, KHS1 (Homo sapiens, UniProt Q9Y4K4); settings: read-out: % Inhibition (at 10mM)
T8 construct: gene MAP4K5

KSR2 = KSR2 (Homo sapiens, UniProt Q6VAB6); settings: read-out: % Inhibition (at 10mM)
MAPKAPK2 = MAPKAPK2 (Homo sapiens, UniProt P49137); settings: read-out: % Inhibition (at 10mM)
MARK3 = MARK3 (Homo sapiens, UniProt P27448); settings: read-out: % Inhibition (at 10mM)
NEK1 = NEK1 (Homo sapiens, UniProt Q96PY6); settings: read-out: % Inhibition (at 10mM)
NIM1 = molecular target: T9, NIM1 (Homo sapiens, UniProt Q8IY84); settings: read-out: % Inhibition (at 10mM)
T9 construct: gene NIM1K
T9 sequence (Q8IY84 whole entry): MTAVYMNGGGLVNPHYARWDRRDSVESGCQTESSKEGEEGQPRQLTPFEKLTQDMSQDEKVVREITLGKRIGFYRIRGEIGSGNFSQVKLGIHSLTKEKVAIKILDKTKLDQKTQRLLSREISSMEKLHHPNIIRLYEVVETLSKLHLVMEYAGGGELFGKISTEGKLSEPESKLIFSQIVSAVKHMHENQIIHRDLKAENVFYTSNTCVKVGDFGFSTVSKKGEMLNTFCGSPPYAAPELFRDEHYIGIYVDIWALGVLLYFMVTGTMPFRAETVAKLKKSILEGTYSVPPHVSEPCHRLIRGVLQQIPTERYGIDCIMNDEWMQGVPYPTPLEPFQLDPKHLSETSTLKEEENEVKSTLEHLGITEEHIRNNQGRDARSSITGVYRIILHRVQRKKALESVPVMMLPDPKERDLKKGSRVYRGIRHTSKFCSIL

PIM2 = PIM2 (Homo sapiens, UniProt Q9P1W9); settings: read-out: % Inhibition (at 10mM)
PKC_iota = molecular target: T10, PKC_iota (Homo sapiens, UniProt P41743); settings: read-out: % Inhibition (at 10mM)
T10 construct: gene PRKCI

PRKAA2_B1_G2 = molecular target: T11, PRKAA2_B1_G2 (Homo sapiens, UniProt P54646); settings: read-out: % Inhibition (at 10mM)
T11 construct: gene PRKAA2

ROCK2 = ROCK2 (Homo sapiens, UniProt O75116); settings: read-out: % Inhibition (at 10mM)
RSK3 = molecular target: T12, RSK3 (Homo sapiens, UniProt Q15349); settings: read-out: % Inhibition (at 10mM)
T12 construct: gene RPS6KA2

RSK4 = molecular target: T13, RSK4 (Homo sapiens, UniProt Q9UK32); settings: read-out: % Inhibition (at 10mM)
T13 construct: gene RPS6KA6

TAO2 = molecular target: T14, TAO2 (Homo sapiens, UniProt Q9UL54); settings: read-out: % Inhibition (at 10mM)
T14 construct: gene TAOK2
T14 sequence (Q9UL54 whole entry): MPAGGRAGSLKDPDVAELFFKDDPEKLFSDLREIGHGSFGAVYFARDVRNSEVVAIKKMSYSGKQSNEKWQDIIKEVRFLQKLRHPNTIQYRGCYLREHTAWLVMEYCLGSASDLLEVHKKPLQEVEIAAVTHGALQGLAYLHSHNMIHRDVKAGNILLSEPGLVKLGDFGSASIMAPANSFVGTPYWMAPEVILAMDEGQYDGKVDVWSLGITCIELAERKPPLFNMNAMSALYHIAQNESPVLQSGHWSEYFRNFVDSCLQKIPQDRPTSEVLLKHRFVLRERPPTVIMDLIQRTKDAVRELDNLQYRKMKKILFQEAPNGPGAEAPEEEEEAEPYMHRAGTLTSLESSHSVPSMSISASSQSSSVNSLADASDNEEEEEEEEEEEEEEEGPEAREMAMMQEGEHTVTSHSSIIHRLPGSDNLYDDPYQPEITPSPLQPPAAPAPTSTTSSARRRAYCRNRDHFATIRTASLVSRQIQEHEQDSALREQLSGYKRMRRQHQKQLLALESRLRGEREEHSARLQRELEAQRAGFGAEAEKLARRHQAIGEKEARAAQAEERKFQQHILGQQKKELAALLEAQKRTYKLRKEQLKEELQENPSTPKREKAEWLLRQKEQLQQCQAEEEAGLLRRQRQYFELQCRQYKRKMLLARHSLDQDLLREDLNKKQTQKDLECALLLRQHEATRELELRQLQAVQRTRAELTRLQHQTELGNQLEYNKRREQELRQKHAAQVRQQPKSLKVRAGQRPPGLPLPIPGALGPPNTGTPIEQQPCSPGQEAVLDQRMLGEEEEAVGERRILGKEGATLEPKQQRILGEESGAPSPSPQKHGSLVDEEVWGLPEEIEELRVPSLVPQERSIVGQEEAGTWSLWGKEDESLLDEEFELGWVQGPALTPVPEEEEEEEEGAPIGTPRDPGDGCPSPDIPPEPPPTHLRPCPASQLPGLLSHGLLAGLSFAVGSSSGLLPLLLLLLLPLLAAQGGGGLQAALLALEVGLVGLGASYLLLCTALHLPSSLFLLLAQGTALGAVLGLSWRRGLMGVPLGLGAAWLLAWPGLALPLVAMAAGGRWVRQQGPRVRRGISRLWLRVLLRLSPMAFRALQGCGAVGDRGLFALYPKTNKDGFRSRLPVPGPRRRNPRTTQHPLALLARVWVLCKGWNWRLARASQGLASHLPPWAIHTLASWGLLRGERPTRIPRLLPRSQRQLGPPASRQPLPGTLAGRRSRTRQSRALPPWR

TBK1 = TBK1 (Homo sapiens, UniProt Q9UHD2); settings: read-out: % Inhibition (at 10mM)
TSSK2 = TSSK2 (Homo sapiens, UniProt Q96PF2); settings: read-out: % Inhibition (at 10mM)
TSSK2, sequence (Q96PF2 whole entry): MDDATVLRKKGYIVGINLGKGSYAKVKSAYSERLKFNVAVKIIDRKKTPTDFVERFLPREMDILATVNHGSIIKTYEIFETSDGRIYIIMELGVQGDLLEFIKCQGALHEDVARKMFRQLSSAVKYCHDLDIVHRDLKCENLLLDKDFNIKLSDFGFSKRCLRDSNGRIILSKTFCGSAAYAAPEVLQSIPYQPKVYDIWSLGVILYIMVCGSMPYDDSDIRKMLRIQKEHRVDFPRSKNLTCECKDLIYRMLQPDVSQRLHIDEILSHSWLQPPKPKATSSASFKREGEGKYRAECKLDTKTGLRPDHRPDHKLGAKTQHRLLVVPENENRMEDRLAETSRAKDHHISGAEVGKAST

YSK1 = molecular target: T15, YSK1 (Homo sapiens, UniProt O00506); settings: read-out: % Inhibition (at 10mM)
T15 construct: gene STK25

YSK4 = molecular target: T16, YSK4 (Homo sapiens, UniProt Q56UN5); settings: read-out: % Inhibition (at 10mM)
T16 construct: gene MAP3K19

mTOR = mTOR (Homo sapiens, UniProt P42345)
p38_delta = molecular target: T17, p38_delta (Homo sapiens, UniProt O15264); settings: read-out: % Inhibition (at 10mM)
T17 construct: gene MAPK13

p70S6K = molecular target: T18, p70S6K (Homo sapiens, UniProt P23443); settings: read-out: % Inhibition (at 10mM)
T18 construct: gene RPS6KB1

Structure (SMILES): CC(C)(O)CC(=O)NCCn1ccc2ncnc(Nc3ccc(Oc4cccc(C(F)(F)F)c4)c(Cl)c3)c21 [TAK-285]
- inhibition (AKT2): 5.5%
- inhibition (Axl): 5%
- inhibition (Bmx): 13.5%
- inhibition (Brk): 65%
- inhibition (CDK5/p35): 3.5%
- inhibition (CK1_gamma1): 2.5%
- inhibition (CSK): 56.5%
- inhibition (CaMKII_beta): 24.5%
- inhibition (CamK1_gamma): 10%
- inhibition (DCAMKL1): -2.5%
- inhibition (DNA-PK): 11.5%
- inhibition (FGFR2): 2%
- inhibition (FGFR4): 6%
- inhibition (Frk): 4.5%
- inhibition (GRK5): -4.5%
- inhibition (GRK6): -1.5%
- inhibition (HIPK3): 0%
- inhibition (ITK): 1%
- inhibition (KHS1): 40.5%
- inhibition (KSR2): 0%
- inhibition (MAPKAPK2): 7.5%
- inhibition (MARK3): 6.5%
- inhibition (NEK1): 1.5%
- inhibition (NIM1): 8.5%
- inhibition (PIM2): 5.5%
- inhibition (PKC_iota): 8%
- inhibition (PRKAA2_B1_G2): 4.5%
- inhibition (ROCK2): -0.5%
- inhibition (RSK3): 2.5%
- inhibition (RSK4): 2.5%
- inhibition (TAO2): -5%
- inhibition (TBK1): 8%
- inhibition (TSSK2): 10.5%
- inhibition (YSK1): 5.5%
- inhibition (YSK4): 1%
- inhibition at 10 µM (mTOR): 9.5%
- inhibition (p38_delta): 5.5%
- inhibition (p70S6K): 7.5%
